The target in test [1] is T1, RNF213 (mouse, full-length) (Mus musculus, UniProt E9Q555).
T1 construct: full length, 5148 residues, 584 kDa, C-terminal Gly3-His10 tag kept; codon-optimised, High Five insect cells; monomer; modelled residues 476-5148
The experiment in a line: cryo-EM structure. In kind it is binding. Conditions: co-purified ATP, Mg; bound to catalytically inactive AAA2, contacts from AAA3.

The target of test [2] is T2, RNF213 (mouse, full-length) (Mus musculus, UniProt E9Q555, R4753K).
T2 construct: full length, 5148 residues, 584 kDa, C-terminal Gly3-His10 tag kept; codon-optimised, High Five insect cells; monomer; modelled residues 476-5148
T2 sequence (E9Q555 whole entry R4753K, the tested form may be a part): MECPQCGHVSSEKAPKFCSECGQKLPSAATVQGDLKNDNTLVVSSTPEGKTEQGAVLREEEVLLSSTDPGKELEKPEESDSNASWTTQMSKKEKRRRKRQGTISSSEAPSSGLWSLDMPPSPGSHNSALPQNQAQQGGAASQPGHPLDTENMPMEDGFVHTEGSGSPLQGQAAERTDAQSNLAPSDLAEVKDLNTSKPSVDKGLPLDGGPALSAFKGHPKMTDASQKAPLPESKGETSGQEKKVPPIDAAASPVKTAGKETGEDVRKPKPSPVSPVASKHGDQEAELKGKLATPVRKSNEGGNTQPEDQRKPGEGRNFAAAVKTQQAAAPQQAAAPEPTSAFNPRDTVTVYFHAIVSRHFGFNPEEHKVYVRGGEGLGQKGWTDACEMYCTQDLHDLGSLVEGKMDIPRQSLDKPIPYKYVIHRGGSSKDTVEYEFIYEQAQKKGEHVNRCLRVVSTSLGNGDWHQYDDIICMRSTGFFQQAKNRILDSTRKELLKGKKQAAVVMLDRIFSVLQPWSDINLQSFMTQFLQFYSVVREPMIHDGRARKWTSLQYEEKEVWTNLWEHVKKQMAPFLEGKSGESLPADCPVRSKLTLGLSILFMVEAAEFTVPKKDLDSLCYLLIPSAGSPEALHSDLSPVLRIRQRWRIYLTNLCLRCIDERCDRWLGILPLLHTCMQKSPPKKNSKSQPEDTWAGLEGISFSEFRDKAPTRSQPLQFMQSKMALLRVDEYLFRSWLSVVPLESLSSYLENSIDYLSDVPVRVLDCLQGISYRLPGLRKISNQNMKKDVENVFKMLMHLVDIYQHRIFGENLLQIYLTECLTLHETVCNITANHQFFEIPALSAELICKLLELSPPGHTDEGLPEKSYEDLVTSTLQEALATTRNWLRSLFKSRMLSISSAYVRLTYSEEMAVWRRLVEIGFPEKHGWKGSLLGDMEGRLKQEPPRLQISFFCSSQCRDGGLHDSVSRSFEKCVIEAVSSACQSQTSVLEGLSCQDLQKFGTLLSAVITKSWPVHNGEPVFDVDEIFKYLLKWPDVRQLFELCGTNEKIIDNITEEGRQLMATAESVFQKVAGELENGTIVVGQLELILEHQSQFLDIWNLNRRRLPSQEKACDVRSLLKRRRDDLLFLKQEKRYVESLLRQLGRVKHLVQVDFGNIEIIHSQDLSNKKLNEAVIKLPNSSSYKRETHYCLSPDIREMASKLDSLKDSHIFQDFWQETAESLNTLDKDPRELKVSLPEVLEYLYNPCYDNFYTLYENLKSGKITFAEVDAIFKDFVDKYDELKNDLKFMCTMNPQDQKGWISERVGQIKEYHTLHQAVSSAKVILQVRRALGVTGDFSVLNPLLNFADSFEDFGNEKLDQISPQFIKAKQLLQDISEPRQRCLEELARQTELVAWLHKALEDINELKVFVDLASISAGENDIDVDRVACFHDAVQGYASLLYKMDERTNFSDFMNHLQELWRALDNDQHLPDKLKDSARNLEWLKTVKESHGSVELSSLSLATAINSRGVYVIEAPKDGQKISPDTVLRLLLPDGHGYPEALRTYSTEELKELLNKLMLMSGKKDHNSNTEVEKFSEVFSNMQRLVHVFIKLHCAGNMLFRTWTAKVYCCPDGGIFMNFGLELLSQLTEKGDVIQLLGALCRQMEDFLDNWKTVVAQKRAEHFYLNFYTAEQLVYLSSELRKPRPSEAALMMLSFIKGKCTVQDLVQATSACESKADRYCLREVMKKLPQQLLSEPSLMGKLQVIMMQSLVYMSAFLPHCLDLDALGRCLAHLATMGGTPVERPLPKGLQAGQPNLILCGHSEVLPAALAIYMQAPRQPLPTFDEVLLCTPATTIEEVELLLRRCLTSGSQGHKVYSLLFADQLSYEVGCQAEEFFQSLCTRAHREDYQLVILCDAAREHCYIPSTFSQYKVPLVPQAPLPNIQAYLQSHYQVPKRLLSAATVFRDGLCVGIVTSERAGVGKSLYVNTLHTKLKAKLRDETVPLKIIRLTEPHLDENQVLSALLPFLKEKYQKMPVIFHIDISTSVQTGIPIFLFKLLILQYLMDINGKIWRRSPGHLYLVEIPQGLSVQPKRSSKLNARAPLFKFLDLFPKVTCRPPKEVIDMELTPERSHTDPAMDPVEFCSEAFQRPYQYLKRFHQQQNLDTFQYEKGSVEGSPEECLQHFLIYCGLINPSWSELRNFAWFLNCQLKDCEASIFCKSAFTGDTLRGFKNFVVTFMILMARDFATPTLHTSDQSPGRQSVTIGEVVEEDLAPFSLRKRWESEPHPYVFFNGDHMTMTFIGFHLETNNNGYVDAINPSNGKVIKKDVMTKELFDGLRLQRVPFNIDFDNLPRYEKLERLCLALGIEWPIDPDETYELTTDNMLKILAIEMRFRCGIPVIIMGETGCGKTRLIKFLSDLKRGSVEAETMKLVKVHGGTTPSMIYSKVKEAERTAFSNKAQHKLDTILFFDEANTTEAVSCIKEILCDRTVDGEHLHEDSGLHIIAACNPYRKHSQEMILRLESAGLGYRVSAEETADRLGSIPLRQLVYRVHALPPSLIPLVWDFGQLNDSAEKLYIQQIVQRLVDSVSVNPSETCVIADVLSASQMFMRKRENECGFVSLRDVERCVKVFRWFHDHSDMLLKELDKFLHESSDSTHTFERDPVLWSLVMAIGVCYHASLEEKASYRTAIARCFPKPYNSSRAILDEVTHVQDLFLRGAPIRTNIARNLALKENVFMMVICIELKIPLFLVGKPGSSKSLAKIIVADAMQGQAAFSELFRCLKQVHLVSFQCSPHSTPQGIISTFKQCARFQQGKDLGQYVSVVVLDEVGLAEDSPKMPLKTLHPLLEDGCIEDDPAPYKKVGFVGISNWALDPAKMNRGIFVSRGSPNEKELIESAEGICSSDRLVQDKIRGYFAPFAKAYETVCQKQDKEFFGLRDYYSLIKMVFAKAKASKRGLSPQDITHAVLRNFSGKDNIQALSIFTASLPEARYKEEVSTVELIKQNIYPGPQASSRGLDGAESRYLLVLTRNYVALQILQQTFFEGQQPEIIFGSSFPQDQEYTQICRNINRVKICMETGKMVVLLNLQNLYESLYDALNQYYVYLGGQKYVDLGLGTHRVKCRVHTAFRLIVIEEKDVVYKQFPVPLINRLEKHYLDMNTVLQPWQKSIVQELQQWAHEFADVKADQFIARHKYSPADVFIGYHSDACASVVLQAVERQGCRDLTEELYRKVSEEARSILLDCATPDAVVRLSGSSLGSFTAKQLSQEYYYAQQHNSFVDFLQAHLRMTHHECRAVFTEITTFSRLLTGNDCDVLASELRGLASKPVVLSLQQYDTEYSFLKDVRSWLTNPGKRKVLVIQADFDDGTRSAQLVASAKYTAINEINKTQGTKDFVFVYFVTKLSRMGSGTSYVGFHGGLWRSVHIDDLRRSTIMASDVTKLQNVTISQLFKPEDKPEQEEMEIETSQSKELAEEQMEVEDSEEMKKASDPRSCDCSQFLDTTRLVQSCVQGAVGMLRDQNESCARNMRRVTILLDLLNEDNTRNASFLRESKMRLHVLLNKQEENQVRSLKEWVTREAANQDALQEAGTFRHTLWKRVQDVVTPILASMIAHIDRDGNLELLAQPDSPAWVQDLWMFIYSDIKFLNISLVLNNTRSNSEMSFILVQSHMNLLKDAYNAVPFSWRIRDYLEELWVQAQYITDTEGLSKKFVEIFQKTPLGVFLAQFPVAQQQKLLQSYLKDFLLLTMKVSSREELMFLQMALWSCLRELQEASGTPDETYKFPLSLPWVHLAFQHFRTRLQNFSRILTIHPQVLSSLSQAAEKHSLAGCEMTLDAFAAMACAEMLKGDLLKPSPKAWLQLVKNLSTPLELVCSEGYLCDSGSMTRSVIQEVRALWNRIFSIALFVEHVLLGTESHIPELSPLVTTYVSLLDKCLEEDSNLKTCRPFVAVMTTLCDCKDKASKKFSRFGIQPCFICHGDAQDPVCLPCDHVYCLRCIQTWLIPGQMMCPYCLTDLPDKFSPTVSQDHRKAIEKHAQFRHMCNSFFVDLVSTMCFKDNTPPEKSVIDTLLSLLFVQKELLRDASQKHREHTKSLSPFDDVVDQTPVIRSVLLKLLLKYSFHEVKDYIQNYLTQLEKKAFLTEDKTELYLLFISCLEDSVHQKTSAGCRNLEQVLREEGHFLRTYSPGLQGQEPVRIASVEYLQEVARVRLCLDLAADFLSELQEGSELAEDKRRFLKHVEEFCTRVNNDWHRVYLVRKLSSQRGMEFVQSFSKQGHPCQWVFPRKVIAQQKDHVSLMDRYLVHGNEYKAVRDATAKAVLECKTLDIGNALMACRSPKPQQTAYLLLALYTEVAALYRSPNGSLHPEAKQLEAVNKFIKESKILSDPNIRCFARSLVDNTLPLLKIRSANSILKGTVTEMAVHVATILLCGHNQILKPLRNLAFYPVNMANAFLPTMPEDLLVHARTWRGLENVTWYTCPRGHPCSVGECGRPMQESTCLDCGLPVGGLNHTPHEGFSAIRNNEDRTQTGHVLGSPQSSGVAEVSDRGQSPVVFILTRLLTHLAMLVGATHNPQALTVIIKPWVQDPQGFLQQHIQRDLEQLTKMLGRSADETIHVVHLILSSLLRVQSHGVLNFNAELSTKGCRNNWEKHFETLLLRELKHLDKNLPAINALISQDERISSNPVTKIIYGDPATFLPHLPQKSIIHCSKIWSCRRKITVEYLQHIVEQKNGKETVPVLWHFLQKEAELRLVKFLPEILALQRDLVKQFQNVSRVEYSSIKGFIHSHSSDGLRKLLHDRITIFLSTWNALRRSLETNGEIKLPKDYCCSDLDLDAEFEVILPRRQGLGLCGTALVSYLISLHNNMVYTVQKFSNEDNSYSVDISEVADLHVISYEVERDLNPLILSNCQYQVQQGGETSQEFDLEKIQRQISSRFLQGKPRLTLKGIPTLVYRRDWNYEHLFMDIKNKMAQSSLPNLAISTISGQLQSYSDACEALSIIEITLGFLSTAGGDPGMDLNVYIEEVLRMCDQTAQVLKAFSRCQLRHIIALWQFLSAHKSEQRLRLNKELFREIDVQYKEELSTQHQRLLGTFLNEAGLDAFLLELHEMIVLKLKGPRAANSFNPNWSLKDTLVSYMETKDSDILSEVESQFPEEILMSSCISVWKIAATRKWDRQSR
As to the kind of experiment: NADH-coupled ATPase assay. In kind it is biochemical. Conditions: 2 mM ATP, equimolar MgCl2 added, pH 7.2, 30 C; Moyamoya founder mutant (human R4810K); rate only in figure.

Test [3] addresses T1, RNF213 (mouse, full-length). The experiment in a line: NADH-coupled ATPase assay. In kind it is biochemical. Conditions: 2 mM ATP, equimolar MgCl2 added, pH 7.2, 30 C; AAA3 and AAA4 proposed competent sites; rate only in figure.

Molecules are shown by their SMILES.

T1 sequence (E9Q555 whole entry, the tested form may be a part): as the sequence (E9Q555 whole entry R4753K, the tested form may be a part) above, with K4753R counted along it

`Nc1ncnc2c1ncn2[C@@H]1O[C@H](COP(=O)(O)OP(=O)(O)OP(=O)(O)O)[C@@H](O)[C@H]1O` [ATP]: the cryo-EM structure entry in test [1] is recorded as “unambiguously revealed a co-purified ATP molecule that is bound to AAA2”. Besides, the “NADH-coupled ATPase assay” value in test [2] is listed as “does not significantly alter the enzymatic properties of RNF213 in vitro”; in test [3], “ATPase activity of RNF213 is an order of magnitude lower than that of a processive”.

Source of the values: publication PMC7311170, “Moyamoya disease factor RNF213 is a giant E3 ligase with a dynein-like core and a distinct ubiquitin-transfer mechanism” (eLife, 2020).
